# Measured values taken from PubChem BioAssay AID1033 (Sanford-Burnham Center for Chemical Genomics, 2008).
# Active and inactive are the calls of the source. How the calls were made is not given here.
# Target: Chaperone protein DnaK (Escherichia coli (strain K12)) (UniProt P0A6Y8)
# Assay: E. coli DnaK SBD ligand binding – biophysical, NMR, chaperone (AID 1033)
# Conditions: Purified DnaK SBD
# Chain of Chaperone protein DnaK (Escherichia coli (strain K12)) (P0A6Y8 whole entry, looked up): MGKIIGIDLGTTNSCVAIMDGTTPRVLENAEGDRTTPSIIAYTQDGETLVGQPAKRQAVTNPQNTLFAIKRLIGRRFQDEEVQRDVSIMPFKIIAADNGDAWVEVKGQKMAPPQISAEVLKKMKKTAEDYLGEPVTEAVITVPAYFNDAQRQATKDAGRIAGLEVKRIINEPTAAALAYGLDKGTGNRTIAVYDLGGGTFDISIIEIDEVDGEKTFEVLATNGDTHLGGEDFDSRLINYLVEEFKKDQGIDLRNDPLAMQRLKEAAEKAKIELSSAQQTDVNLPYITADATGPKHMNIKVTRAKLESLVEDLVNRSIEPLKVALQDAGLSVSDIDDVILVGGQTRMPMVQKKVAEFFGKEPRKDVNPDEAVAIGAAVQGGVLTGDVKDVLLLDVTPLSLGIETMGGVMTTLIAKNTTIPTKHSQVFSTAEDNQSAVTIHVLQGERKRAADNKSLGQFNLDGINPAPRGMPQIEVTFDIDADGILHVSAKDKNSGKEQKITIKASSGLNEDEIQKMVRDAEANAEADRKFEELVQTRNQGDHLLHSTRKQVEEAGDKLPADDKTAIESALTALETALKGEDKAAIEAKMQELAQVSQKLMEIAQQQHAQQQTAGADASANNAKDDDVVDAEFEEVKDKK
row,SMILES,Kd
1,Cc1ccc(=O)[nH]c1,> 4 mM (inactive)
2,CCOC(=O)C1CCNCC1,> 4 mM (inactive)
3,CC1(C)C2CC[C@]3(C)C(C(=O)C=C4[C@H]5C[C@@](C)(C(=O)O)CC[C@]5(C)CC[C@]43C)[C@@]2(C)CC[C@@H]1O (stereo partly drawn),> 4 mM (inactive)
4,Cc1sc2nc(NCCO)[nH]c(=O)c2c1C,> 4 mM (inactive)
5,COCC(=O)Nc1ccc(F)cc1F,> 4 mM (inactive)
6,Cc1c(-c2ccc(F)cc2)[n+](=O)c2c(n1[O-])CCC2,> 4 mM (inactive)
7,CNCc1ccco1,> 4 mM (inactive)
8,O=C(NCc1ccccc1)c1cnsn1,> 4 mM (inactive)
9,CN(C)C(=O)CSc1cccc2cccnc12,> 4 mM (inactive)
10,CC(=O)Oc1c(C)cc(O)c2ccccc12,> 4 mM (inactive)
11,Cc1cc(=O)oc2cc3c(cc12)OCCO3,> 4 mM (inactive)
12,NS(=O)(=O)c1ccc(N=C2NC(=O)CS2)cc1,> 4 mM (inactive)
13,Cc1ccc2nc(SCC(=O)O)nc(C)c2c1,> 4 mM (inactive)
14,Cn1ccc(NC(=S)Nc2cccc([N+](=O)[O-])c2)n1,> 4 mM (inactive)
15,CC1CC2(NC(=O)NC2=O)C(C)CN1C (stereo not drawn),> 4 mM (inactive)
16,Cc1nn(C)c(C)c1C(=O)O,> 4 mM (inactive)
17,O=C1O[C@H](C(O)CO)C(O)=C1O (stereo partly drawn),> 4 mM (inactive)
18,Cc1cc(C)n(-c2cccc3cccnc23)n1,> 4 mM (inactive)
19,O=C1Nc2ccccc2C1(O)Cc1ccncc1 (stereo not drawn),> 4 mM (inactive)
20,CNC(=O)C1CC(=O)N(c2ccc(O)cc2)C1 (stereo not drawn),> 4 mM (inactive)
21,CC(C)CCCC(C)[C@H]1CCC2C3CC[C@H]4CC(=O)CC[C@]4(C)C3CC[C@@]21C (stereo partly drawn),> 4 mM (inactive)
22,c1ccc(C[N+]23CCN(CC2)c2ccccc23)cc1,> 4 mM (inactive)

row,SMILES,Kd
1,CCC(=O)n1nc(-c2ccco2)nc1N,> 4 mM (inactive)
2,Oc1cc(O)c2c(c1)O[C@H](c1cc(O)c(O)c(O)c1)[C@H](O)C2,> 4 mM (inactive)
3,COc1cnn(Cc2ccccc2)c(=O)c1Cl,> 4 mM (inactive)
4,CCOc1nc(C)ccc1-c1noc(-c2ccncc2)n1,> 4 mM (inactive)
5,COc1ccc(Cl)cc1-c1n[nH]c(=S)n1C,> 4 mM (inactive)
6,Cc1ccn(S(=O)(=O)c2ccc(F)cc2)n1,> 4 mM (inactive)
7,COc1ccc2[nH]cc(CCN(C)C)c2c1,> 4 mM (inactive)
8,Cc1nc(-c2cccc(C(=O)O)c2)cs1,> 4 mM (inactive)
9,Cc1ccc(C)n1NC(=O)c1ccco1,> 4 mM (inactive)
10,O=S1(=O)CCC(NCc2ccccc2)C1 (stereo not drawn),> 4 mM (inactive)
11,COc1cc2c(cc1OC)C(C)NCC2 (stereo not drawn),> 4 mM (inactive)
12,S=c1nc(Cc2ccccc2)[nH][nH]1,> 4 mM (inactive)
13,CCOC(=O)C1CCN(Cc2ccccc2)CC1=O (stereo not drawn),> 4 mM (inactive)
14,O=C(Nc1ccon1)c1cc2c(s1)CCCC2,> 4 mM (inactive)
15,Cc1nc2ccccc2c(=O)[nH]1,> 4 mM (inactive)
16,O=C(O)c1snnc1-c1ccccc1,> 4 mM (inactive)
17,CCn1ncc(Cl)c1C(=O)Nc1ccncc1,> 4 mM (inactive)
18,Nc1ncnc(NCCOCCO)c1[N+](=O)[O-],> 4 mM (inactive)
19,CC(C)=NNC(=O)C(=O)NC(C)(C)C,> 4 mM (inactive)
20,COc1c2occc2c(OC)c2c(=O)cc(C)oc12,> 4 mM (inactive)
21,CCn1nnc(NC(=O)c2ccccc2Br)n1,> 4 mM (inactive)
22,CC(C)C(=O)NC(=S)N1CCOCC1,> 4 mM (inactive)

row,SMILES,Kd
1,Cc1nn(-c2ccccc2)nc1CO,> 4 mM (inactive)
2,O=C(O)c1ccc2sccc2c1,> 4 mM (inactive)
3,N#Cc1c[nH]n2c(=O)cc(Cc3ccccc3)nc12,> 4 mM (inactive)
4,O=C(NN1C(=O)c2ccccc2C1=O)c1cccs1,> 4 mM (inactive)
5,Cc1cc(=O)n(CCc2ccccc2)c(O)c1C#N,> 4 mM (inactive)
6,O=C(NS(=O)(=O)c1ccccc1)c1ccccc1F,> 4 mM (inactive)
7,C=CCSCC=C,> 4 mM (inactive)
8,O=S(=O)(NCc1ccco1)c1cccc2cccnc12,> 4 mM (inactive)
9,O=C1CS/C(=N/N=C/c2cccs2)N1,> 4 mM (inactive)
10,COc1ccc([C@@H]2CC(=O)c3c(O)cc(O)cc3O2)cc1O,> 4 mM (inactive)
11,O=C(O)c1cccc(CSc2ncccn2)c1,> 4 mM (inactive)
12,CC(=O)NC(=S)Nc1ccc(S(N)(=O)=O)cc1,> 4 mM (inactive)
13,CC(C)NC(=S)N1CCN(S(C)(=O)=O)CC1,> 4 mM (inactive)
14,Cc1nc(SCC#N)c2c3c(sc2n1)CCC3,> 4 mM (inactive)
15,CC1(C)C2CC[C@]3(C)C(C(=O)C=C4[C@@H]5C[C@@](C)(C(=O)O)CC[C@]5(C)CC[C@]43C)[C@@]2(C)CC[C@@H]1O (stereo partly drawn),> 4 mM (inactive)
16,Cc1occc1C(=O)NCc1ccncc1,> 4 mM (inactive)
17,COC(=O)c1ccccc1NC(=O)c1cc[n+]([O-])cc1,> 4 mM (inactive)
18,S=C=NCc1ccccc1,> 4 mM (inactive)
19,O=C(O)c1ncoc1-c1ccccc1,> 4 mM (inactive)
20,CC1=CC(=O)CC(C)(C)C1(O)/C=C/C(C)=C\C(=O)O (stereo not drawn),> 4 mM (inactive)
21,Cc1nc2ccc(NC(=O)N3CCSCC3)cc2s1,> 4 mM (inactive)
22,O=c1c(O)c(-c2ccccc2)oc2cc(O)ccc12,> 4 mM (inactive)

row,SMILES,Kd
1,O=C(O)CCc1nc2ccccc2[nH]c1=O,> 4 mM (inactive)
2,Cn1c(=O)c2c(n(C)c1=O)=NC1(CCCCC1)N=2,> 4 mM (inactive)
3,Cc1cc(C)nc(N2CC(=O)N(C)C2=N)n1,> 4 mM (inactive)
4,CC(=O)N1CCC(NC2CCCCCC2)CC1,> 4 mM (inactive)
5,CC(=O)O[C@H]1CC[C@@]2(C)C(=CCC3C2CC[C@@]2(C)C3CC[C@@H]2C(C)CCCC(C)C)C1 (stereo partly drawn),> 4 mM (inactive)
6,COc1cccc(-c2cc(=O)c3cc(OC)ccc3o2)c1,> 4 mM (inactive)
7,O=C(O)C1CC(=O)N(Cc2cccs2)C1 (stereo not drawn),> 4 mM (inactive)
8,CC(=O)Nc1ccc(N2C(=O)C=CC2=O)cc1C,> 4 mM (inactive)
9,CCCCCC/C=C\CCCCCCCc1cccc(O)c1C(=O)O,> 4 mM (inactive)
10,OCC1CCN(Cc2ccccc2)CC1,> 4 mM (inactive)
11,O=C(Nc1cccc(C(F)(F)F)c1)c1cccnc1,> 4 mM (inactive)
12,O=S1(=O)CCC(NC(=S)Nc2ccc(O)cc2)C1 (stereo not drawn),> 4 mM (inactive)
13,CSc1n[nH]c(NCc2ccccc2)n1,> 4 mM (inactive)
14,OCc1ccc(-c2cccs2)s1,> 4 mM (inactive)
15,CC(=O)Nc1ccc(S(=O)(=O)Nc2cc(C)on2)cc1,> 4 mM (inactive)
16,O=C(O)Cn1c(C(F)(F)F)nc2ccccc21,> 4 mM (inactive)
17,CC(CCC(=O)O)[C@H]1CCC2C3CC[C@@H]4C[C@H](O)CC[C@]4(C)C3CC[C@@]21C (stereo partly drawn),> 4 mM (inactive)
18,O=S1(=O)NC(=NCc2ccccc2)c2ccccc21,> 4 mM (inactive)
19,COCCOc1nc2ccccc2nc1C,> 4 mM (inactive)
20,COCC(=O)Nc1cccc(Br)c1,> 4 mM (inactive)
21,CNc1nc(C)nc(-n2nc(C)cc2C)n1,> 4 mM (inactive)
22,CCCc1nc2ccccc2c2nc(N)nn12,> 4 mM (inactive)
